Data as given in article PMC8500670, “A selective WDR5 degrader inhibits acute myeloid leukemia in patient-derived mouse models” (Science translational medicine, 2021).

Tests used:
Experiment in all cases: biochemical
Design in all cases: protein methyltransferase inhibition panel, single concentration, duplicate
NSD1 = NSD1 (Homo sapiens, UniProt Q96L73)
Procedure: (§1) We next assessed selectivity of MS67 against 22 protein methyltransferases (table S2) and a broad panel of common drug targets including 45 kinases (table S3) and 44 G protein–coupled receptors (GPCR), ion channels, and transporters (table S4). […] We subsequently determined that MS67 had moderate binding affinity (Ki = 1.0 ± 0.8 μM) to Sigma 2 receptor (fig. S10).

NSD3 = molecular target: T1, NSD3 (Homo sapiens, UniProt Q9BZ95)
T1 sequence (Q9BZ95 1-1437): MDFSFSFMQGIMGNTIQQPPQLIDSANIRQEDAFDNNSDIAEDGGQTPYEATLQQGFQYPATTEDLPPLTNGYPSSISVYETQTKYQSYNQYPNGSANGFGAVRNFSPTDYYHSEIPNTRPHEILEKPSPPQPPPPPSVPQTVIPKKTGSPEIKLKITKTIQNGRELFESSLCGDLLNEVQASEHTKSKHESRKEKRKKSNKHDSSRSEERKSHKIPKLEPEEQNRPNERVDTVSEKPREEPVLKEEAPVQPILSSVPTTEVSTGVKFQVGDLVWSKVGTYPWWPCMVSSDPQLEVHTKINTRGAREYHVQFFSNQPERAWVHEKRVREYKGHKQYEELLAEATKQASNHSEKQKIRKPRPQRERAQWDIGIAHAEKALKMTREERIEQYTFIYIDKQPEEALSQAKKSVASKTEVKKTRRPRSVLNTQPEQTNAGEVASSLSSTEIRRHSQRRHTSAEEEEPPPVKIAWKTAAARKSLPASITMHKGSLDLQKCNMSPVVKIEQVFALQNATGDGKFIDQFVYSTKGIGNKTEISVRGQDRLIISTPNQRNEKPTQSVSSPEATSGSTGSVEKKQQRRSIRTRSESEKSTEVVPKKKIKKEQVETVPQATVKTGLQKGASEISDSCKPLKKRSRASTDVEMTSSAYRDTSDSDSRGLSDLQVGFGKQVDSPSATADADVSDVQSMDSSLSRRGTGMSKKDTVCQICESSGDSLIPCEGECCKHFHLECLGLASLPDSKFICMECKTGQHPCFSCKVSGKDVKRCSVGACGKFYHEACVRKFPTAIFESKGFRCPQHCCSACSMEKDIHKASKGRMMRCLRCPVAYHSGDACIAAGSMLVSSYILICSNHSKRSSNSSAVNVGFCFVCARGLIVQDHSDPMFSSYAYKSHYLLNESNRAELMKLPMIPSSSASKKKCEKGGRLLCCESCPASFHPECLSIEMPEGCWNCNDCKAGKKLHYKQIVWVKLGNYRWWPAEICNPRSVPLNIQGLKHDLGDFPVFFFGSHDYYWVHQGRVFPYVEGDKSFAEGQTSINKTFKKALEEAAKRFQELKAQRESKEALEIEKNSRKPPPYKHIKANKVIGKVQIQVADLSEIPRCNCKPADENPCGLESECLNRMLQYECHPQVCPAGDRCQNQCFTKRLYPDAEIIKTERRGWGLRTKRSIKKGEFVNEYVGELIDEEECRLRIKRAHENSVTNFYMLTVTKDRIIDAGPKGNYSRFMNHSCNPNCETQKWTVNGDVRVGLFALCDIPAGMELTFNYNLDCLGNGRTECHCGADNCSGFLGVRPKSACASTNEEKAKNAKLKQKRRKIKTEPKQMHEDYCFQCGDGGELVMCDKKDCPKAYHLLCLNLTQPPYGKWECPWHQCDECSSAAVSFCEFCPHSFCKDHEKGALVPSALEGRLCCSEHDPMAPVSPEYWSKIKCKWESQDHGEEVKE
Procedure: as §1

SET7/9 = molecular target: T2, SET7/9 (Homo sapiens, UniProt Q8WTS6)
T2 construct: gene SETD7
T2 sequence (Q8WTS6 1-366): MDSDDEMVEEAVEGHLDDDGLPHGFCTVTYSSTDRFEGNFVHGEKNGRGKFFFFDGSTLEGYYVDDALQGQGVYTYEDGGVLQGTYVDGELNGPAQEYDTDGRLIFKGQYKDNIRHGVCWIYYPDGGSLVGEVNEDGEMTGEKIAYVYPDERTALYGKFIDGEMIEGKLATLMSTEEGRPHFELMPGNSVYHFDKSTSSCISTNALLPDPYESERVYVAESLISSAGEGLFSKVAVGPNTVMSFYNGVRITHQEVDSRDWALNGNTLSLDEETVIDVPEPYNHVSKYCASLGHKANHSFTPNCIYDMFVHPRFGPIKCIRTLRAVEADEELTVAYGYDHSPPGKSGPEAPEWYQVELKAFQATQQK
Procedure: as §1

SET8 = molecular target: T3, SET8 (Homo sapiens, UniProt Q9NQR1)
T3 construct: gene KMT5A
T3 sequence (Q9NQR1 1-393): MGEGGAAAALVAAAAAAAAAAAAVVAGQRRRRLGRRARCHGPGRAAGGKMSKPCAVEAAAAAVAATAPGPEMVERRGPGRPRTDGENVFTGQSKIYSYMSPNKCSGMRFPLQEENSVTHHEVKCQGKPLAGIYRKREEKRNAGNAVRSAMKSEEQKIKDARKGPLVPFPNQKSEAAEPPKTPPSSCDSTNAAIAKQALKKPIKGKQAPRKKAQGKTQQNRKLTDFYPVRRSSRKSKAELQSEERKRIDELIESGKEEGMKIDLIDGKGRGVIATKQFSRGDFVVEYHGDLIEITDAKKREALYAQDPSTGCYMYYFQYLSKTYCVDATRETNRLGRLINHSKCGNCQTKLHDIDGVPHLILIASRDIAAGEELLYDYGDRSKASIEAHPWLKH
Procedure: as §1

Measured: inhibition at 10 µM

Chain of NSD1 (Q96L73 whole entry): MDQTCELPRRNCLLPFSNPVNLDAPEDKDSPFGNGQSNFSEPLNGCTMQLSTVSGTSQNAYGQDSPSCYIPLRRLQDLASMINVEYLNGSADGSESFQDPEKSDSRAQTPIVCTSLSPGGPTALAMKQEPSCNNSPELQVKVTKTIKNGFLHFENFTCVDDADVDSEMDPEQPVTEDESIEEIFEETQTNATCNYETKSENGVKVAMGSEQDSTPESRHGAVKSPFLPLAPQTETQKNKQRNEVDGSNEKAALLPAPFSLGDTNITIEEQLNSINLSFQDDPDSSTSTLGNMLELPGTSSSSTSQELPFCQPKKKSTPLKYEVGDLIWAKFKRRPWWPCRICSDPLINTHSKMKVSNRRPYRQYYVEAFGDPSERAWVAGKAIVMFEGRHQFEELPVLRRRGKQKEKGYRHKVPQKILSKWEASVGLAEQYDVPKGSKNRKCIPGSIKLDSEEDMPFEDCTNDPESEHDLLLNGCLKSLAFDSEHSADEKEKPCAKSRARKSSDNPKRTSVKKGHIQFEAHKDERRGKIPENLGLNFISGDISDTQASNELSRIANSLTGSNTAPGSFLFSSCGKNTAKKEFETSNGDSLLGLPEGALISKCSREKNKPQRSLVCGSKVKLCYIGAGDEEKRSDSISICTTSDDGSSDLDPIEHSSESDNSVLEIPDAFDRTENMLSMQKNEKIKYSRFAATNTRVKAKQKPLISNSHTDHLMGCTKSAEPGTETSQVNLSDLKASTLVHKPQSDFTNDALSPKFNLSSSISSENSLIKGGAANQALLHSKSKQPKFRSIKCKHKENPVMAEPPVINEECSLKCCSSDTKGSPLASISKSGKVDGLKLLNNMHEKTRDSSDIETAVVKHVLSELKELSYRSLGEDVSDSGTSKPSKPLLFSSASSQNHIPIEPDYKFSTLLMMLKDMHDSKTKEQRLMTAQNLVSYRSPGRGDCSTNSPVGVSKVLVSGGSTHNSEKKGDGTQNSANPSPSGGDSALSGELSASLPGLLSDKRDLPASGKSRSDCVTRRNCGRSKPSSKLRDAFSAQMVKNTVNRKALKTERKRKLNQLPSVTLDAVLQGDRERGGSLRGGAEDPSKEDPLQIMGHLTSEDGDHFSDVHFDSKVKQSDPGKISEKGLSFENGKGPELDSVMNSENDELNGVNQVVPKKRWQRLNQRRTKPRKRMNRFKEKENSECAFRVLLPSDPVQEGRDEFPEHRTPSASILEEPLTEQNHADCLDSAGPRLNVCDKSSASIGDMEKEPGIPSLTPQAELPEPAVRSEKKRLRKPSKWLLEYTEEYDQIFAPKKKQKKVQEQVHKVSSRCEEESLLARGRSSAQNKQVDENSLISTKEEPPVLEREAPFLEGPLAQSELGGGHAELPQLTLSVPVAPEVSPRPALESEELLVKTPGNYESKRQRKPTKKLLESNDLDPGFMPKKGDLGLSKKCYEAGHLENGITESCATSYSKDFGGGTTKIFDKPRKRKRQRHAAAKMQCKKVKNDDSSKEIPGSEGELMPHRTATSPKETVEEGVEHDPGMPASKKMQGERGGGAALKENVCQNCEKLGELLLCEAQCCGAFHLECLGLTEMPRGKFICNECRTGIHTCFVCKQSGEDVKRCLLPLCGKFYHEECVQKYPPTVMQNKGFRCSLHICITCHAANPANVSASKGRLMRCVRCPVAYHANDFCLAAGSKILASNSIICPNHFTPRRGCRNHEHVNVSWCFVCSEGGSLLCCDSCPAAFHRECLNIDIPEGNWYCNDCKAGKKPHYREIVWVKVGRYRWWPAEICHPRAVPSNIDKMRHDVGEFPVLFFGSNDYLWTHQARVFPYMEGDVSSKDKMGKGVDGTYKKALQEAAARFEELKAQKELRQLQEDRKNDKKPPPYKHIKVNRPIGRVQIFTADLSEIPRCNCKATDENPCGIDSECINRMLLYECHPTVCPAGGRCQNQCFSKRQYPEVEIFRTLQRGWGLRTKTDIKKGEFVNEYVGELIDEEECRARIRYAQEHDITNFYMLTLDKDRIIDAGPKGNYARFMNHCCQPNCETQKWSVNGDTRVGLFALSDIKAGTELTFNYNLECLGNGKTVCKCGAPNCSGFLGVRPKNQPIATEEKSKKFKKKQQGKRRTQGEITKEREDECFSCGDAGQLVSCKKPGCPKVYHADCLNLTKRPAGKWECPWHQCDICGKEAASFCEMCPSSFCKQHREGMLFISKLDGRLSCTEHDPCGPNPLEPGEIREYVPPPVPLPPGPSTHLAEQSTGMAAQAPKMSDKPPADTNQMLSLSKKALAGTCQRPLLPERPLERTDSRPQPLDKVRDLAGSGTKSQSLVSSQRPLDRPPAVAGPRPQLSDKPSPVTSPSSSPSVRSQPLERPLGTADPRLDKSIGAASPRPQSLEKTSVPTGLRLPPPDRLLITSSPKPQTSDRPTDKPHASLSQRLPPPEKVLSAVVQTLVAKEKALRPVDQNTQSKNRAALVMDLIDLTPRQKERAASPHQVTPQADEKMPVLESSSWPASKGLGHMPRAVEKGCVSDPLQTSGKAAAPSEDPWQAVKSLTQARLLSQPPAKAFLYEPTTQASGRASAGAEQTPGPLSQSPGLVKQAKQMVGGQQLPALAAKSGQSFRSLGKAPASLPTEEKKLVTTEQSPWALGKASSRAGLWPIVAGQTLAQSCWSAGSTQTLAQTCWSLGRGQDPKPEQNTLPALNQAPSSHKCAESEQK

Cc1ncsc1-c1ccc([C@H](C)NC(=O)[C@@H]2C[C@@H](O)CN2C(=O)[C@@H](NC(=O)CNC(=O)c2ccc(F)c(-c3ccc(N4C[C@@H](C)N(C)[C@@H](C)C4)c(NC(=O)c4c[nH]c(=O)cc4C(F)(F)F)c3)c2)C(C)(C)C)cc1 [MS67]
< 10%: all assays above
